Tests used:
Assay in all cases: drug sensitivity score (DSS), CellTox Green (DSS (AUC-based score)); higher = stronger drug effect (viability inhibition or cytotoxicity); extreme values may be limits of the assay
Conditions in all cases: incubation time: 72 h
[1] = system: Hs578T
Method in brief: (§1)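 A drug sensitivity score was derived from the area under each fitted dose-response curve. Breast cancer cells (20 µl suspension) were seeded onto compound in 384-well plates, using 5 concentrations 10-fold apart over a compound-specific 10,000-fold range, and incubated 72 h. Readouts were CellTox Green fluorescence and then CellTiter-Glo luminescence, with every plate normalised to 0.1 % DMSO and a positive kill control.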

[2] = system: BT-474
Method in brief: as §1

[3] = system: DU-4475
Method in brief: as §1

[4] = system: HCC1937
Method in brief: as §1

[5] = system: CAL-120
Method in brief: as §1

[6] = system: MCF-10A
Method in brief: as §1

[7] = system: MFM-223
Method in brief: as §1

[8] = system: CAL-51
Method in brief: as §1

[9] = system: MDA-MB-468
Method in brief: as §1

[10] = system: HCC1599
Method in brief: as §1

[11] = system: MDA-MB-436
Method in brief: as §1

[12] = system: BT-549
Method in brief: as §1

[13] = system: CAL-85-1
Method in brief: as §1

[14] = system: CAL-148
Method in brief: as §1

[15] = system: HCC1143
Method in brief: as §1

[16] = system: MDA-MB-231
Method in brief: as §1

[17] = system: MDA-MB-453
Method in brief: as §1

Row | Compound | drug sensitivity score [1] | drug sensitivity score [2] | drug sensitivity score [3] | drug sensitivity score [4] | drug sensitivity score [5] | drug sensitivity score [6] | drug sensitivity score [7] | drug sensitivity score [8] | drug sensitivity score [9] | drug sensitivity score [10] | drug sensitivity score [11] | drug sensitivity score [12] | drug sensitivity score [13] | drug sensitivity score [14] | drug sensitivity score [15] | drug sensitivity score [16] | drug sensitivity score [17]
1 | COc1cc2c(cc1O)CC[C@@H]1[C@@H]2CC[C@]2(C)[C@@H](O)CC[C@@H]12 [2-methoxyestradiol] | 8.52 | 3.99 | 0 | 0 | 0.794 | 1.69 | 6.65 | 4.37 | 0 | 0 | 0 | 0.838 | 0 | 0 | 0 | 13.2 | 0
2 | Cc1sc2c(c1C)C(c1ccc(Cl)cc1)=N[C@@H](CC(=O)OC(C)(C)C)c1nnc(C)n1-2 [(+)JQ1] | 0 | 0 | 1.14 | 13.4 | 1.56 | 0 | 0 | 6.31 | 8.47 | 0 | 0 | 0 | 8.47 | 6.55 | 0 | 0 | 0
3 | Nc1ncn([C@@H]2O[C@H](CO)[C@@H](O)[C@H]2O)c(=O)n1 [Azacitidine] | 0 | 1.95 | 0 | 0 | 0 | 0 | 0 | 0 | 0.523 | 0 | 1.61 | 0 | 0 | 0 | 0 | 0 | 0
4 | O=NN(CCCl)C(=O)NCCCl [Carmustine] | 0 | 0 | 0 | 0 | 0 | 0 | 0 | 0 | 0 | 0 | 0 | 0 | 0 | 0 | 0 | 0 | 0
5 | CC(=O)N(O)CCCCCNC(=O)CCC(=O)N(O)CCCCCNC(=O)CCC(=O)N(O)CCCCCN [Deferoxamine] | 0 | 0 | 0 | 0 | 0 | 0 | 0 | 4.29 | 0 | 0 | 0 | 0 | 0 | 7.47 | 0 | 0 | 0
6 | CC(=O)O[C@@]12CO[C@@H]1C[C@H](O)[C@@]1(C)C(=O)[C@H](O)C3=C(C)[C@@H](OC(=O)[C@H](O)[C@@H](NC(=O)OC(C)(C)C)c4ccccc4)C[C@@](O)([C@@H](OC(=O)c4ccccc4)[C@H]21)C3(C)C [Docetaxel] | 19.2 | 11.8 | 0 | 1.03 | 0.904 | 19.1 | 10.2 | 26.2 | 0 | 0 | 0 | 11.4 | 25.5 | 0 | 5.08 | 31 | 0
7 | C[C@]1(O)C[C@@H](c2nc(-c3ccc4ccc(-c5ccccc5)nc4c3)c3c(N)nccn32)C1 [Linsitinib] | 2.22 | 0 | 0 | 0 | 0 | 0 | 0 | 0 | 0 | 0 | 14.3 | 0 | 0 | 0 | 0 | 4.69 | 0
8 | CC1(C)CNc2cc(NC(=O)c3cccnc3NCc3ccncc3)ccc21 [Motesanib] | 0 | 0 | 0 | 0 | 0 | 0 | 0 | 0 | 0 | 0 | 0 | 0 | 0 | 0 | 0 | 0 | 0
9 | Cc1ccc([N+](=O)[O-])cc1S(=O)(=O)N(C)/N=C/c1cnc2ccc(Br)cn12 [PIK-75] | 25.2 | 20.3 | 7.23 | 2.32 | 2.85 | 32.7 | 12.3 | 36.9 | 19.6 | 7.69 | 0 | 16.9 | 25.2 | 0 | 9.38 | 40 | 7.11
10 | COc1cc(F)c(F)c(Nc2ccc(I)cc2F)c1NS(=O)(=O)C1(C[C@H](O)CO)CC1 [Refametinib] | 0 | 0 | 8.58 | 0 | 0.239 | 0 | 0 | 0 | 6.47 | 0 | 0 | 0 | 12.3 | 0 | 0 | 16.3 | 0
11 | CC(C)(C)c1cnc(CSc2cnc(NC(=O)C3CCNCC3)s2)o1 [SNS-032] | 17.1 | 0 | 0 | 0 | 0 | 16.3 | 6.31 | 15.1 | 3.58 | 0 | 0 | 7.86 | 20.9 | 0 | 0 | 30.8 | 0
12 | Cn1cnc2c(F)c(Nc3ccc(Br)cc3Cl)c(C(=O)NOCCO)cc21 [Selumetinib] | 0 | 0 | 8.17 | 0 | 2 | 0 | 0 | 0 | 6.94 | 0 | 0 | 0 | 0 | 0 | 0 | 13.2 | 0
13 | Nc1nc2[nH]cnc2c(=S)[nH]1 [Thioguanine] | 0 | 0 | 0 | 0 | 0 | 0 | 0 | 0 | 0 | 0 | 0 | 0 | 0 | 0 | 0 | 0 | 0
